Species: Rattus norvegicus
Experiment: DrugMatrix - Regimen: Daily Repeat
Assay type: toxicity, organism-based, Sprague-Dawley
Set-up: regimen Daily Repeat, gender Male, age 6-8 weeks
Conditions: in vivo, po, route oral GAVAGE, vehicle 100 % WATER; for ABSOLUTE BASOPHIL / ABSOLUTE EOSINOPHIL / ABSOLUTE LYMPHOCYTE / ABSOLUTE MONOCYTE / ABSOLUTE SEGMENTED NEUTROPHIL / BASOPHIL / EOSINOPHIL / ERYTHROCYTE COUNT / HEMATOCRIT / HEMOGLOBIN / LEUKOCYTE COUNT / LYMPHOCYTE / MEAN CORPUSCULAR HEMOGLOBIN / MEAN CORPUSCULAR HEMOGLOBIN CONCENTRATION / MEAN CORPUSCULAR VOLUME / MONOCYTE / NEUTROPHIL / NUCLEATED RED BLOOD CELLS / PLATELET COUNT: tissue Blood; for ALANINE AMINOTRANSFERASE / ALBUMIN / ALKALINE PHOSPHATASE / ASPARTATE AMINOTRANSFERASE / BLOOD UREA NITROGEN / CARBON DIOXIDE / CHLORIDE / CHOLESTEROL / CREATINE PHOSPHOKINASE / CREATININE / GLUCOSE / LACTATE DEHYDROGENASE / LIPASE / PHOSPHORUS / POTASSIUM / SODIUM / TOTAL BILIRUBIN / TOTAL PROTEIN / URIC ACID: tissue Plasma
[1] = 0 mg/kg, 72 h, dose level Control, time 3 day
[2] = 0 mg/kg, 120 h, dose level Control, time 5 day
[3] = 60 mg/kg, 72 h, dose level Low, time 3 day

CC(C)C[C@H](NC(=O)[C@@H](O)[C@H](N)Cc1ccccc1)C(=O)O [UBENIMEX]
ABSOLUTE BASOPHIL [1]: 0 CELLS/uL
ABSOLUTE EOSINOPHIL [1]: 168.33 CELLS/uL
ABSOLUTE LYMPHOCYTE [1]: 13654.17 CELLS/uL
ABSOLUTE MONOCYTE [1]: 121 CELLS/uL
ABSOLUTE SEGMENTED NEUTROPHIL [1]: 1223.17 CELLS/uL
BASOPHIL [1]: 0%
EOSINOPHIL [1]: 1.17%
ERYTHROCYTE COUNT [1]: 5.7 x10E6/uL
HEMATOCRIT [1]: 35.33%
HEMOGLOBIN [1]: 13.97 G/DL
LEUKOCYTE COUNT [1]: 15.17 x10E3/uL
LYMPHOCYTE [1]: 89.83%
MEAN CORPUSCULAR HEMOGLOBIN [1]: 24.53 pg
MEAN CORPUSCULAR HEMOGLOBIN CONCENTRATION [1]: 39.53 G/DL
MEAN CORPUSCULAR VOLUME [1]: 62.05 fL
MONOCYTE [1]: 0.83%
NEUTROPHIL [1]: 8.17%
NUCLEATED RED BLOOD CELLS [1]: 0 /100WBC
PLATELET COUNT [1]: 1312.17 x10E3/uL
ALANINE AMINOTRANSFERASE [1]: 50.83 u/L
ALBUMIN [1]: 4.18 G/DL
ALKALINE PHOSPHATASE [1]: 334.17 u/L
ASPARTATE AMINOTRANSFERASE [1]: 82.17 u/L
BLOOD UREA NITROGEN [1]: 15.5 mg/dL
CARBON DIOXIDE [1]: 31.33 mmol/L
CHLORIDE [1]: 99.83 MEQ/L
CHOLESTEROL [1]: 76 mg/dL
CREATINE PHOSPHOKINASE [1]: 272.17 u/L
CREATININE [1]: 0.17 mg/dL
GLUCOSE [1]: 143 mg/dL
LACTATE DEHYDROGENASE [1]: 157.5 u/L
LIPASE [1]: 9.33 u/L
PHOSPHORUS [1]: 12.18 mg/dL
POTASSIUM [1]: 6.78 MEQ/L
SODIUM [1]: 143.9 MEQ/L
TOTAL BILIRUBIN [1]: 0.22 mg/dL
TOTAL PROTEIN [1]: 5.85 G/DL
URIC ACID [1]: 1.7 mg/dL
ABSOLUTE BASOPHIL [2]: 0 CELLS/uL
ABSOLUTE EOSINOPHIL [2]: 0 CELLS/uL
ABSOLUTE LYMPHOCYTE [2]: 13539.33 CELLS/uL
ABSOLUTE MONOCYTE [2]: 177.67 CELLS/uL
ABSOLUTE SEGMENTED NEUTROPHIL [2]: 2116.33 CELLS/uL
BASOPHIL [2]: 0%
EOSINOPHIL [2]: 0%
ERYTHROCYTE COUNT [2]: 5.78 x10E6/uL
HEMATOCRIT [2]: 36.13%
HEMOGLOBIN [2]: 14.1 G/DL
LEUKOCYTE COUNT [2]: 15.83 x10E3/uL
LYMPHOCYTE [2]: 85.83%
MEAN CORPUSCULAR HEMOGLOBIN [2]: 24.42 pg
MEAN CORPUSCULAR HEMOGLOBIN CONCENTRATION [2]: 39 G/DL
MEAN CORPUSCULAR VOLUME [2]: 62.55 fL
MONOCYTE [2]: 0.83%
NEUTROPHIL [2]: 13.33%
NUCLEATED RED BLOOD CELLS [2]: 0.17 /100WBC
PLATELET COUNT [2]: 1281.17 x10E3/uL
ALANINE AMINOTRANSFERASE [2]: 55.5 u/L
ALBUMIN [2]: 4.22 G/DL
ALKALINE PHOSPHATASE [2]: 345 u/L
ASPARTATE AMINOTRANSFERASE [2]: 92.5 u/L
BLOOD UREA NITROGEN [2]: 16.5 mg/dL
CARBON DIOXIDE [2]: 26.5 mmol/L
CHLORIDE [2]: 103.5 MEQ/L
CHOLESTEROL [2]: 78.5 mg/dL
CREATINE PHOSPHOKINASE [2]: 381.5 u/L
CREATININE [2]: 0.21 mg/dL
GLUCOSE [2]: 161.83 mg/dL
LACTATE DEHYDROGENASE [2]: 487.5 u/L
LIPASE [2]: 10.17 u/L
PHOSPHORUS [2]: 11.83 mg/dL
POTASSIUM [2]: 6.4 MEQ/L
SODIUM [2]: 146.95 MEQ/L
TOTAL BILIRUBIN [2]: 0.22 mg/dL
TOTAL PROTEIN [2]: 6.22 G/DL
URIC ACID [2]: 1.83 mg/dL
ABSOLUTE BASOPHIL [3]: 0 CELLS/uL
ABSOLUTE EOSINOPHIL [3]: 99.33 CELLS/uL
ABSOLUTE LYMPHOCYTE [3]: 13954.33 CELLS/uL
ABSOLUTE MONOCYTE [3]: 91 CELLS/uL
ABSOLUTE SEGMENTED NEUTROPHIL [3]: 1655.33 CELLS/uL
BASOPHIL [3]: 0%
EOSINOPHIL [3]: 0.67%
ERYTHROCYTE COUNT [3]: 5.56 x10E6/uL
HEMATOCRIT [3]: 33.13%
HEMOGLOBIN [3]: 12.97 G/DL
LEUKOCYTE COUNT [3]: 15.8 x10E3/uL
LYMPHOCYTE [3]: 88.33%
MEAN CORPUSCULAR HEMOGLOBIN [3]: 23.33 pg
MEAN CORPUSCULAR HEMOGLOBIN CONCENTRATION [3]: 39.17 G/DL
MEAN CORPUSCULAR VOLUME [3]: 59.53 fL
MONOCYTE [3]: 0.67%
NEUTROPHIL [3]: 10.33%
NUCLEATED RED BLOOD CELLS [3]: 0 /100WBC
PLATELET COUNT [3]: 1252.67 x10E3/uL
ALANINE AMINOTRANSFERASE [3]: 58 u/L
ALBUMIN [3]: 4.13 G/DL
ALKALINE PHOSPHATASE [3]: 310.67 u/L
ASPARTATE AMINOTRANSFERASE [3]: 96.67 u/L
BLOOD UREA NITROGEN [3]: 15.67 mg/dL
CARBON DIOXIDE [3]: 29.33 mmol/L
CHLORIDE [3]: 100 MEQ/L
CHOLESTEROL [3]: 80 mg/dL
CREATINE PHOSPHOKINASE [3]: 475.33 u/L
CREATININE [3]: 0.2 mg/dL
GLUCOSE [3]: 142 mg/dL
LACTATE DEHYDROGENASE [3]: 612.67 u/L
LIPASE [3]: 9.67 u/L
PHOSPHORUS [3]: 11.07 mg/dL
POTASSIUM [3]: 6.61 MEQ/L
SODIUM [3]: 143.5 MEQ/L
TOTAL BILIRUBIN [3]: 0.17 mg/dL
TOTAL PROTEIN [3]: 5.8 G/DL
URIC ACID [3]: 1.47 mg/dL

Reference: ChEMBL document CHEMBL3885881, “DrugMatrix”
